Like-named read-outs stand apart in the source and are kept apart here.
How the values were obtained:
[1] = RPM extract 36 g/kg p.o., rat plasma, Mean ± SD, n = 6; ref Cheng et al., 2020; cited from earlier work
[2] = Tissue distribution of RPM constituents after oral RPM extract; conditions: Sprague-Dawley, rat, po, 18 g/kg
Method: For the tissue distribution study, 18 rats were randomly divided into three groups (n = 6, each) and orally administered 18 g/kg RPM extract. The rats under isoflurane anesthesia were sacrificed by bleeding from the abdominal aorta at 5, 15, and 60 min (six rats per time point) after gavage with 18 g/kg RPM extract. Subsequently, the heart, liver, spleen, lung, kidney, brain, stomach, small intestine, bladder, and gonads (testes of male rats, and uterus and ovaries of female rats) were immediately collected. An accurately weighed amount of fresh tissue sample (0.25 g) was individually homogenized with normal saline (1 ml) and transferred (50 μL) as a tissue homogenate to 1.5 ml centrifuge tubes for use as the tissue samples. All tissue samples were stored at −70°C until analysis.
Samples were prepared using the protein precipitation process. […] The tissue samples were homogenized in four parts of ice-cold 0.9% saline solution and then centrifuged at 4°C and 12,000 × g for 10 min to obtain tissue homogenates. […] Tissue homogenate, urine, bile and fecal samples were subjected to a similar process as the rat plasma samples.
For the tissue distribution study, 18 rats were randomly divided into three groups (n=6, each), and orally administered with 18 g/kg RPM extract. The rats were sacrificed at 5, 15, 60 min after orally administering RPM. Subsequently, the heart, liver, spleen, lung, kidney, brain, stomach, small intestine, bladder, gonad (testes of male rats, uterus and ovaries of female rats) were immediately collected. An accurately weighed amount of fresh tissue sample (0.25 g) was individually homogenized with normal saline (1 mL) and transferred (50 μL) as a tissue homogenate to 1.5 mL centrifuge tubes for use as the tissue samples.

[3] = Plasma pharmacokinetics of RPM constituents after oral RPM extract; conditions: for time at which C max was exhibited: RPM extract p.o.; for plasma concentrations: RPM extract 6, 18 and 36 g/kg p.o.
From the text: For the pharmacokinetic (PK) study, three groups (n = 6 each) of rats were orally administered RPM extract (6, 18, and 36 g/kg). In the plasma pharmacokinetics experiment, doses were 6, 18, and 36 g/kg for the single administration group and 18 g/kg for the continuous administration group. The doses were set at a subtoxic level ([Zhang et al., 2013]; [Wang et al., 2015]) to investigate the pharmacokinetic profiles of the constituents of RPM (36 g/kg group) and were approximately 60 times the upper dose (6 g/day) for humans recommended by the 2020 edition of Chinese Pharmacopoeia ([Chinese Pharmacopoeia Commission, 2020]), which was converted to a dose for rats based on body surface area conversion ([Reagan-Shaw et al., 2008]). In addition, the low and medium doses decreased in a certain proportion. Serial blood samples (∼120 μL; before dosing and at 5, 15, and 30 min, and 1, 2, 4, 6, 8, 12, and 24 h after administration) were collected in heparinized tubes from the orbital sinus under light isoflurane. The blood samples were centrifuged at 12000 g for 2 min, and the plasma fractions were decanted and frozen at −70°C until analysis.
Samples were prepared using the protein precipitation process. Rat plasma (50 μL) spiked with 10 μL of IS (puerarin 100 ng/ml) was extracted with 150 μL acetonitrile. After vortex shaking for 5 min and centrifugation at 14,000 g for 5 min, 150 μL of the organic layer was transferred to a clean tube and evaporated to dryness at 25°C under a stream of nitrogen. The residue was reconstituted in 50 μL of the initial mobile phase and subjected to another round of centrifugation at 14,000 g for 5 min, and 5 μL of the supernatant was injected for LC–MS/MS analysis.
The analysis was performed on an AB Sciex API 5500 Q Trap mass spectrometer (Toronto, Canada), interfaced with a Waters Acquity UPLC separation module.
(§1) The pharmacokinetic parameters, including the area under the plasma concentration-time curve from time zero to time t (AUC0-t) to time infinity (AUC0-∞), the time to reach the maximum plasma concentration (T max), the elimination half-time (t 1/2), and the maximum plasma concentration (C max), were calculated using the pharmacokinetic software Phoenix® WinNonlin®, version 7.0 (Scientific Consulting Inc., Apex, NC, United States). Data are expressed as the mean ± standard deviation (SD) for each group. The dose-exposure relationship was evaluated by the power function model combined with the confidence interval method ([Smith et al., 2000]; [Sethuraman et al., 2007]; [Hummel et al., 2009]). First, the administration dose, AUC0-∞ and C max were logarithmically transformed, and then a linear regression was performed to obtain the curve correlation coefficient (R^2), slope and 90% confidence interval (90% CI).

[4] = Biliary excretion in bile duct drained rats after oral RPM extract; conditions: single p.o. RPM extract 18 g/kg, rat bile
Method: (§2) For the excretion study, the rats were housed singly in metabolic cages with urine collection tubes kept at 4 °C during sample collection. Urine and fecal samples were collected at time intervals of 0–4, 4–8, 8–24, 24–32, and 32–48 h after a single dose of RPM extract at 18 g/kg and then weighed. Another six rats were anesthetized with pentobarbital, fixed in the supine position and subjected to bile duct drainage surgery, and the abdominal wound was sutured. Blank bile samples were collected before the administration of RPM. The rats were weighed, and the state of the rats was observed. Subsequently, they were orally administered 18 g/kg RPM extract. The bile samples were collected at time intervals of 0–1, 1–2, 2–4, 4–6, 6–8, 8–24, 24–32 and 32–48 h. The urine, feces, and bile samples were stored at −70°C until use.
(§3) Samples were prepared using the protein precipitation process. […] After vortex shaking for 5 min and centrifugation at 14,000 g for 5 min, 150 μL of the organic layer was transferred to a clean tube and evaporated to dryness at 25°C under a stream of nitrogen. The residue was reconstituted in 50 μL of the initial mobile phase and subjected to another round of centrifugation at 14,000 g for 5 min, and 5 μL of the supernatant was injected for LC–MS/MS analysis. […] Urine and bile samples were centrifuged at 4°C and 12,000 × g for 15 min. Fecal samples were homogenized in 0.9% saline and then centrifuged at 4°C and 12,000 × g for 15 min to gather the fecal homogenates. Tissue homogenate, urine, bile and fecal samples were subjected to a similar process as the rat plasma samples.
(§4) For the excretion study, 6 rats were placed in metabolic cage after orally administered with 18 g/kg RPM extract, and urine, feces samples were collected at time intervals of 0–4, 4–8, 8–24, 24–32, 32–48, 48–60, and 60–72 h. Another 6 rats were anesthetized with pentobarbital, fixed in the supine position and performed bile duct drainage operation, and the abdominal wound was sutured. […] Subsequently, they were orally administered with 18 g/kg RPM extract. The bile samples were collected at time intervals of 0–1, 1–2, 2–4, 4–6, 6–8, 8–24, 24–32 and 32–48 h. The urine, feces, and bile samples were stored at −70 °C until use.

[5] = Excretion into urine and feces and mass balance after oral RPM extract; conditions: for dose excreted: Sprague-Dawley, rat, po; for cumulative excretion into urine / detection in urine: rat urine
Method: as §2, §3, §4

[6] = Dose-exposure relationship (power function model with confidence interval method)
Method: as §1

[7] = Sprague-Dawley, rat, plasma, po, 6 g/kg
[8] = Sprague-Dawley, rat, plasma, po, 18 g/kg
[9] = feces, Recovery in feces (%), mass balance, 18 g/kg RPM extract p.o., feces collected 0–72 h
[10] = urine, Recovery in urine (%), mass balance, 18 g/kg RPM extract p.o., urine collected 0–72 h
[11] = single p.o. RPM extract 18 g/kg, rat feces
[12] = single p.o. RPM extract 18 g/kg
[13] = AUC0-∞ vs p.o. dose of RPM extract, critical interval 0.88–1.12
[14] = C max vs p.o. dose of RPM extract, critical interval 0.80–1.20
[15] = log AUC0-∞ vs log p.o. dose of RPM extract, critical interval 0.88–1.12
[16] = log C max vs log p.o. dose of RPM extract, critical interval 0.80–1.20
[17] = both, bladder, AUC0-t in bladder, rat tissue: bladder, 18 g/kg RPM extract p.o., tissues collected at 5, 15, 60 min
[18] = both, heart, AUC0-t in heart, rat tissue: heart, 18 g/kg RPM extract p.o., tissues collected at 5, 15, 60 min
[19] = both, intestine, AUC0-t in intestine, rat tissue: intestine, 18 g/kg RPM extract p.o., tissues collected at 5, 15, 60 min
[20] = both, kidney, AUC0-t in kidney, rat tissue: kidney, 18 g/kg RPM extract p.o., tissues collected at 5, 15, 60 min
[21] = both, liver, AUC0-t in liver, rat tissue: liver, 18 g/kg RPM extract p.o., tissues collected at 5, 15, 60 min
[22] = both, lung, AUC0-t in lung, rat tissue: lung, 18 g/kg RPM extract p.o., tissues collected at 5, 15, 60 min
[23] = both, spleen, AUC0-t in spleen, rat tissue: spleen, 18 g/kg RPM extract p.o., tissues collected at 5, 15, 60 min
[24] = both, stomach, AUC0-t in stomach, rat tissue: stomach, 18 g/kg RPM extract p.o., tissues collected at 5, 15, 60 min
[25] = female, uterus, AUC0-t in uterus, rat tissue: uterus, 18 g/kg RPM extract p.o., tissues collected at 5, 15, 60 min
[26] = female, ovary, AUC0-t in ovary, rat tissue: ovary, 18 g/kg RPM extract p.o., tissues collected at 5, 15, 60 min
[27] = urine and feces, recovery from the urine and feces, single p.o. RPM extract 18 g/kg, rats

| Compound | AUC(0-inf) [3, 7] [µM·h] | AUC(0-t) [3, 7] [µM·h] | Cmax [3, 7] [nM] | MRT inf [3, 7] [h] | Tmax [3, 7] [h] | half-life [3, 7] [h] | AUC(0-inf) [3, 8] [µM·h] | AUC(0-t) [3, 8] [µM·h] | Cmax [3, 8] [nM] | MRT inf [3, 8] [h] | half-life [3, 8] [h] | cumulative excretion into bile [4] [nmol] | Conclusion (dose-exposure relationship) [6, 13] | Conclusion (dose-exposure relationship) [6, 14] | Slope (90%CI) [6, 15] | Slope (90%CI) [6, 16] | Tmax [3, 8] [h] | AUC0-∞ [1] [µM·h] | AUC(0-t) [1] [µM·h] | Cmax [1] [nM] | further results |
| --- | --- | --- | --- | --- | --- | --- | --- | --- | --- | --- | --- | --- | --- | --- | --- | --- | --- | --- | --- | --- | --- |
| O=C1c2cccc(O)c2C(=O)c2c(O)cc(CO)cc21 [Aloe-emodin, aloe-emodin] | 0.0124 ± 0.007 | 0.00832 ± 0.00416 | 8.25 ± 7.47 | 9.61 ± 8.77 | 0.29 ± 0.1 | 8.46 ± 7.14 | 0.0324 ± 0.0144 | 0.0254 ± 0.0097 | 31.7 ± 3.03 | 4.65 ± 3.53 | 5.09 ± 3.38 | 61.1 ± 8.66 | Uncertainty of linear relationship | Uncertainty of linear relationship | 0.582 (0.278–0.885) | 1.07 (0.795–1.35) | – | 0.0313 ± 0.0127 | 0.027 ± 0.012 | 42 ± 11.5 | AUC(0-t) ([2]; both, brain): 0.00106 µM·h; AUC(0-t) ([2]; both, heart): 0.0169 µM·h; AUC(0-t) ([2]; both, intestine): 0.00733 µM·h; AUC(0-t) ([2]; both, kidney): 0.00977 µM·h; AUC(0-t) ([2]; both, liver): 0.0555 µM·h; AUC(0-t) ([2]; both, lung): 0.0313 µM·h; AUC(0-t) ([2]; both, spleen): 0.0525 µM·h; AUC(0-t) ([2]; both, stomach): 0.0238 µM·h; AUC(0-t) ([2]; female, ovary): 0.00666 µM·h; time at which C max was exhibited ([3]; rat plasma): ≤ 20 min; dose excreted [5, 9]: 21.7%; dose excreted ([5]; urine and feces, Recovery in urine and feces (%), mass balance, 18 g/kg RPM extract p.o., urine plus feces, 0–72 h): 31.4%; dose excreted [5, 10]: 9.69%; cumulative excretion into feces [5, 11]: 43.7 ± 6.18 nmol; cumulative excretion into urine [5, 12]: 19.3 ± 5.44 nmol |
| Cc1cc(O)c2c(c1)C(=O)c1cccc(O[C@@H]3O[C@H](CO)[C@@H](O)[C@H](O)[C@H]3O)c1C2=O [CG, chrysophanol-8-O-β-D-glucoside] | – | – | – | – | – | – | – | – | – | – | – | – | – | – | – | – | – | – | – | – | plasma concentrations ([3]; rat plasma): too low to be detected |
| Cc1cc(O)c2c(c1)C(=O)c1cccc(O)c1C2=O [Chrysophanol] | 0.34 ± 0.195 | 0.0748 ± 0.0589 | 9.36 ± 3.26 | 40.3 ± 23.3 | 1.03 ± 0.96 | 26.3 ± 14.4 | – | 0.0198 ± 0.00941 | 7.87 ± 2.19 | – | – | – | Nonlinear correlation | Nonlinear correlation | –0.667 (–1.14 to –0.193) | –0.158 (-0.337–0.021) | 3.51 ± 3.06 | 0.0404 ± 0.00736 | 0.0169 ± 0.00647 | 7.48 ± 2.21 | AUC(0-t) [2, 17]: 0.0376 µM·h; AUC(0-t) [2, 18]: 0.0311 µM·h; AUC(0-t) [2, 19]: 0.0277 µM·h; AUC(0-t) [2, 20]: 0.0132 µM·h; AUC(0-t) [2, 21]: 0.0273 µM·h; AUC(0-t) [2, 22]: 0.0476 µM·h; AUC(0-t) [2, 23]: 0.0503 µM·h; AUC(0-t) ([2]; both, spleen, AUC0-t in the spleen, RPM extract 18 g/kg p.o., rat spleen, sampling 5, 15, 60 min): 0.0503 µM·h; AUC(0-t) [2, 24]: 0.0345 µM·h; AUC(0-t) [2, 25]: 0.029 µM·h |
| COc1cc(O)cc2c1C(=O)c1c(O)cc(C)cc1C2=O [questin] | – | – | – | – | – | – | – | – | – | – | – | – | – | – | – | – | – | – | – | – | plasma concentrations ([3]; rat plasma): too low to be detected |

Continued, in another order:

| AUC(0-inf) [3, 7] [µM·h] | AUC(0-t) [3, 7] [µM·h] | Cmax [3, 7] [nM] | MRT inf [3, 7] [h] | Tmax [3, 7] [h] | half-life [3, 7] [h] | AUC(0-inf) [3, 8] [µM·h] | AUC(0-t) [3, 8] [µM·h] | Cmax [3, 8] [nM] | MRT inf [3, 8] [h] | half-life [3, 8] [h] | cumulative excretion into bile [4] [nmol] | Conclusion (dose-exposure relationship) [6, 13] | Conclusion (dose-exposure relationship) [6, 14] | Slope (90%CI) [6, 15] | Slope (90%CI) [6, 16] | Tmax [3, 8] [h] | Compound | AUC0-∞ [1] [µM·h] | AUC(0-t) [1] [µM·h] | Cmax [1] [nM] | further results |
| --- | --- | --- | --- | --- | --- | --- | --- | --- | --- | --- | --- | --- | --- | --- | --- | --- | --- | --- | --- | --- | --- |
| 0.0919 ± 0.0145 | 0.0777 ± 0.00612 | 16.8 ± 4.1 | 7.55 ± 1.48 | 0.29 ± 0.1 | 4.83 ± 0.99 | 0.192 ± 0.0126 | 0.176 ± 0.0168 | 34.2 ± 4.59 | 9.64 ± 2.05 | 7.09 ± 2.12 | 18.2 ± 3.29 | Nonlinear correlation | Nonlinear correlation | 0.429 (0.326–0.532) | 0.524 (0.396–0.652) | 0.26 ± 0.13 | COc1cc(O[C@@H]2O[C@H](CO)[C@@H](O)[C@H](O)[C@H]2O)c2c(c1)C(=O)c1cc(C)cc(O)c1C2=O [PG, physcion-8-O-β-D-glucoside] | 0.188 ± 0.0186 | 0.178 ± 0.0201 | 42.1 ± 10.9 | MRT0-∞ [1]: 8.58 ± 1.72 h; t 1/2 [1]: 6.13 ± 1.06 h; AUC(0-t) [2, 17]: 0.205 µM·h; AUC(0-t) ([2]; both, brain, AUC0-t in brain, rat tissue: brain, 18 g/kg RPM extract p.o., tissues collected at 5, 15, 60 min): 0.125 µM·h; AUC(0-t) [2, 18]: 1.64 µM·h; AUC(0-t) [2, 19]: 0.692 µM·h; AUC(0-t) [2, 20]: 3.21 µM·h; AUC(0-t) [2, 21]: 3.38 µM·h; AUC(0-t) [2, 22]: 0.842 µM·h; AUC(0-t) [2, 23]: 2.69 µM·h; AUC(0-t) [2, 24]: 1.29 µM·h; AUC(0-t) [2, 26]: 0.614 µM·h; AUC(0-t) [2, 25]: 0.735 µM·h; AUC(0-t) ([2]; male, testis, AUC0-t in testis, rat tissue: testis, 18 g/kg RPM extract p.o., tissues collected at 5, 15, 60 min): 0.0806 µM·h; time at which C max was exhibited ([3]; rat plasma): ≤ 20 min; dose excreted [5, 9]: 11.6%; dose excreted [5, 27]: 16.4%; dose excreted [5, 10]: 4.83%; cumulative excretion into feces [5, 11]: 13.6 ± 1.12 nmol; cumulative excretion into urine [5, 12]: 5.53 ± 2.08 nmol |
| 0.027 ± 0.0228 | 0.00861 ± 0.00169 | 1.09 ± 0.317 | 12.2 ± 2.93 | 3.5 ± 2.17 | 8 ± 2.01 | 0.0583 ± 0.0143 | 0.0401 ± 0.00898 | 3.54 ± 0.652 | 20.6 ± 13.5 | 14.4 ± 9.99 | – | Nonlinear correlation | Uncertainty of linear relationship | 0.551 (0.275–0.827) | 0.774 (0.610–0.938) | 1.83 ± 1.8 | COc1cc(O)cc2c1C(=O)c1c(O)cc(CO)cc1C2=O [Questinol, questinol] | 0.0575 ± 0.00945 | 0.0473 ± 0.00685 | 4 ± 0.673 | MRT0-∞ [1]: 13.6 ± 4.21 h; T max [1]: 4.38 ± 4.03 h; t 1/2 [1]: 8.90 ± 2.70 h; AUC(0-t) [2, 17]: 0.0169 µM·h; AUC(0-t) [2, 18]: 0.034 µM·h; AUC(0-t) [2, 20]: 0.0243 µM·h; AUC(0-t) [2, 21]: 0.0553 µM·h; AUC(0-t) [2, 22]: 0.0251 µM·h; AUC(0-t) [2, 23]: 0.0103 µM·h; AUC(0-t) [2, 24]: 0.0061 µM·h; AUC(0-t) [2, 26]: 0.0168 µM·h; AUC(0-t) [2, 25]: 0.0186 µM·h; detection in bile [4]: not detected; dose excreted [5, 27]: 4.12%; cumulative excretion into feces [5, 11]: 0.566 ± 0.0666 nmol; detection in urine [5, 12]: not have been detected |
| – | – | – | – | – | – | – | 0.00426 ± 0.00299 | – | – | – | 45.0 ± 8.41 | – | Nonlinear correlation | – | 0.034 (-0.482–0.550) | 0.42 ± 0.14 | O=C(O)c1cc(O)c2c(c1)C(=O)c1cccc(O)c1C2=O [Rhein, rhein] | 0.00814 ± 0.00178 | 0.00391 ± 0.00223 | 3.74 ± 0.84 | Cmax ([3]; RPM extract 18 g/kg p.o., rat plasma, Mean ± SD, n = 6): 3.72 ± 1.25 nM; plasma concentration ([3]; rats dosed with 6 g/kg RPM, plasma): could not be detected; detection in feces [5, 11]: not detected; detection in urine [5, 12]: not detected |

Source: publication PMC8899820, “Pharmacokinetics, Tissue Distribution, and Excretion Characteristics of a Radix Polygoni Multiflori Extract in Rats” (Frontiers in Pharmacology, 2022)
